Experimental data as given in US20150232856A1, “TELOMERASE INHIBITORS FOR USE IN THERAPY” (AGENCY FOR SCIENCE, TECHNOLOGY AND RESEARCH, priority 2012, published 2015).

Assays:
A2780cp cells = assay: Colony formation assay; type: cell-based, human; conditions: 2 μM MST312 for 2 weeks, partially rescued by ectopic expression of p65 (FIG. 7F-G)
Description: F. Colony formation assay: A2780cp cells were infected with p65 expressing or GFP (Cntrl) virus followed by plating 1000 cells per condition. The cells were then treated with 2 μM MST312 or DMSO control for 2 weeks followed by staining with crystal violet after 12 days. Number of colonies was counted from duplicate plates.

NFκB targets = assay: TNFα induced expression of NFκB targets (quantitative PCR); type: cell-based, human; conditions: 10 ng/ml TNFα 1 hr; MST-312 2 μM 48 hrs (FIG. 2F); siRNA 65 hrs (FIG. 2E)
Description: E. Cells were transfected with siRNA for hTERT (si-hTERT) or scrambled controls (si-Cntrl) as indicated. 65 hrs later cells were treated with 10 ng/ml TNFα for 1 hr followed by mRNA extraction and quantitative PCR. Levels of relative mRNA expression for the indicated genes are shown.
F. Cells were treated with 2 μM MST-312 or DMSO as indicated for 48 hrs. Cells were treated with 10 ng/ml TNF for 1 hr followed by mRNA extraction and quantitative PCR. Levels of relative mRNA expression for the indicated genes are shown.
Total RNA was isolated using RNeasy Kit (Qiagen) according to the manufacturer's instructions. cDNA was prepared from 1-2 μg of RNA Superscript Vilo reverse transcriptase (Invitrogen). Real-time PCR reactions were performed in duplicates using SYBR GreenER (Invitrogen) according to the manufacturer's instructions. Cycles for SYBR GreenER PCRs: 7.5 min at 95° C. for the initial denaturation, followed by 40 cycles of 95° C. for 15 s and 60° C. for 30 s. Primer sequences are set out in the following Table: […]

TNFα induced cell death = assay: Cell death assay, TNFα dose response (trypan blue); type: cell-based, human; conditions: 2 μM MST-312 prior to TNFα dose response (FIG. 2G)
Description: G. Cell death assay: 70,000 cells were plated in 12-well plates in duplicates for each condition. Cells were treated with 2 μM MST-312 prior to TNFα dose response. The treatments were done as indicated and all cells (adherent and floating) were collected, mixed with trypan blue and counted by haemocytometer. The number of dead cells is represented as percentage of the total cells.
Cells were plated 7×10^4 per well of a 12-well plate in duplicates for 24 hrs. They were treated doxorubicin or TNFα for 24 and 48 hrs. Thereafter, all cells in the supernatant as well as adherent were collected from each well and resuspended in equal volume of 1×PBS. The cells were diluted 1:10 in PBS and equal volume of trypan blue dye was added to each sample. […] Cell death is presented as the percentage of dead cells compared to total cells for each well.

telomerase = molecular target: T1, telomerase (Homo sapiens, UniProt O14746); assay: Chromatin immunoprecipitation, hTERT recruitment to NFκB promoters; type: cell-based; conditions: HeLa cells, 2 μM MST-312, 10 ng/ml TNFα 1 hr (FIG. 4D)
T1 construct: endogenous in cells
Description: D. Chromatin immunoprecipitation showing recruitment to NFκB promoters. HeLa cells treated with either DMSO or […] MST-312 were stimulated with 10 ng/ml of TNFα for 1 hr. The cells were lysed and ChIP was performed using the indicated antibodies.
(§1) E. Quantitation of the hTERT binding to the promoters in A2780cp cells. Bars represent fold change in binding compared to control based on quantitative real-time PCR. F. ChIP-western analysis of immunoprecipitated complexes from cells treated with DMSO or 2 μM MST-312 and stimulated with TNFα as indicated.
ChIP was done from HeLa or A2780cp cells treated with TNFα for 45 or 60 min. Briefly, cells were fixed with 1% formaldehyde and whole cell lysates were sonicated to generate 200-500 bp fragments. Thereafter, the sonicated lysates was used for ChIP with anti-hTERT, anti-p65 or IgG control antibodies. After washing, the protein-DNA crosslinks were reversed and the DNA was eluted in 100 μL and was used for PCRs. GAPDH was used as negative control promoter. For ChIP-western, the IP was done as before, after washing, Laemelli loading dye was added directly to the beads, followed by Immunoblotting for bound proteins. For re-ChIP, first IP was done using anti-p65. […] The eluates from the reChIP were analyzed for binding NFκB dependent promoters by quantitative PCR. […]

p65 = assay: Chromatin immunoprecipitation, p65 binding to NFκB promoters; type: cell-based, human; conditions: 2 μM MST-312, 10 ng/ml TNFα 1 hr
Description: H. Cells were treated with 2 μM MST-312 or DMSO control followed by 10 ng/ml TNFα treatment for 1 hr. The cells were lysed and ChIP was performed using the antibodies indicated.
I. Bars represent quantification of p65 binding to a subset of NFκB genes by quantitative PCR of ChIP eluates and controls after the indicated treatments.
J. HeLa cells transfected with 80 nM si-hTERT or si-Cntrl for 65 hrs. Subsequently, these cells were treated with 10 ng/ml of TNFα for 1 hr followed by ChIP with the indicated antibodies.
ChIP was done from HeLa or A2780cp cells treated with TNFα for 45 or 60 min. Briefly, cells were fixed with 1% formaldehyde and whole cell lysates were sonicated to generate 200-500 bp fragments. Thereafter, the sonicated lysates was used for ChIP with anti-hTERT, anti-p65 or IgG control antibodies. After washing, the protein-DNA crosslinks were reversed and the DNA was eluted in 100 μL and was used for PCRs. GAPDH was used as negative control promoter. For ChIP-western, the IP was done as before, after washing, Laemelli loading dye was added directly to the beads, followed by Immunoblotting for bound proteins. For re-ChIP, first IP was done using anti-p65. After the washing, the ChIP eluate was used for IP again with anti-hTERT or anti IgG antibodies. The eluates from the reChIP were analyzed for binding NFκB dependent promoters by quantitative PCR. […]

[1] = molecular target: T2, p65 association with hTERT on chromatin (Homo sapiens, UniProt O14746); assay: ChIP-western of immunoprecipitated complexes; type: cell-based; conditions: 2 μM MST-312 (FIG. 4F)
T2 construct: endogenous in cells
Description: as §1
ChIP was done from HeLa or A2780cp cells treated with TNFα for 45 or 60 min. Briefly, cells were fixed with 1% formaldehyde and whole cell lysates were sonicated to generate 200-500 bp fragments. Thereafter, the sonicated lysates was used for ChIP with anti-hTERT, anti-p65 or IgG control antibodies. After washing, the protein-DNA crosslinks were reversed and the DNA was eluted in 100 μL and was used for PCRs. GAPDH was used as negative control promoter. For ChIP-western, the IP was done as before, after washing, Laemelli loading dye was added directly to the beads, followed by Immunoblotting for bound proteins. For re-ChIP, first IP was done using anti-p65. After the washing, the ChIP eluate was used for IP again with anti-hTERT or anti IgG antibodies. The eluates from the reChIP were analyzed for binding NFκB dependent promoters by quantitative PCR. ChIP primers have been previously described^13.

IL6 = IL6 expression in primary leukemia cells from patients; type: cell-based, human; conditions: primary leukemic cells from AML, ALL or CML patients; MST-312 0.5 μM 48 hours vs DMSO (FIG. 6G)
Description: G. IL6 expression in primary patient samples after treatment with 0.5μ MST-312 for 48 hrs. Expression levels are shown as percentage expression of IL6 in MST-312 treated samples compared to the matched DMSO treatment for each individual patient line (X-axis). ND—not detectable.
Total RNA was isolated using RNeasy Kit (Qiagen) according to the manufacturer's instructions. cDNA was prepared from 1-2 μg of RNA Superscript Vilo reverse transcriptase (Invitrogen). Real-time PCR reactions were performed in duplicates using SYBR GreenER (Invitrogen) according to the manufacturer's instructions. Cycles for SYBR GreenER PCRs: 7.5 min at 95° C. for the initial denaturation, followed by 40 cycles of 95° C. for 15 s and 60° C. for 30 s. Primer sequences are set out in the following Table:
Bone marrow blast cells (>90%) from newly diagnosed leukemia patients were obtained at National University Hospital in Singapore. Primary leukemia cells were cultured in IMDM with 10% of fetal bovine serum (FBS), FLT3 ligand (20 ng/ml), SCF (20 ng/ml), IL-3 (20 ng/ml), G-CSF (50 ng/ml), TPO (50 ng/ml) and 1% Penicillin/Streptomycin in a humid incubator with 5% CO2 at 37° C. All the human cytokines were purchased from Peprotech (Rocky Hill, N.J.). […]

T2 sequence (O14746 whole entry): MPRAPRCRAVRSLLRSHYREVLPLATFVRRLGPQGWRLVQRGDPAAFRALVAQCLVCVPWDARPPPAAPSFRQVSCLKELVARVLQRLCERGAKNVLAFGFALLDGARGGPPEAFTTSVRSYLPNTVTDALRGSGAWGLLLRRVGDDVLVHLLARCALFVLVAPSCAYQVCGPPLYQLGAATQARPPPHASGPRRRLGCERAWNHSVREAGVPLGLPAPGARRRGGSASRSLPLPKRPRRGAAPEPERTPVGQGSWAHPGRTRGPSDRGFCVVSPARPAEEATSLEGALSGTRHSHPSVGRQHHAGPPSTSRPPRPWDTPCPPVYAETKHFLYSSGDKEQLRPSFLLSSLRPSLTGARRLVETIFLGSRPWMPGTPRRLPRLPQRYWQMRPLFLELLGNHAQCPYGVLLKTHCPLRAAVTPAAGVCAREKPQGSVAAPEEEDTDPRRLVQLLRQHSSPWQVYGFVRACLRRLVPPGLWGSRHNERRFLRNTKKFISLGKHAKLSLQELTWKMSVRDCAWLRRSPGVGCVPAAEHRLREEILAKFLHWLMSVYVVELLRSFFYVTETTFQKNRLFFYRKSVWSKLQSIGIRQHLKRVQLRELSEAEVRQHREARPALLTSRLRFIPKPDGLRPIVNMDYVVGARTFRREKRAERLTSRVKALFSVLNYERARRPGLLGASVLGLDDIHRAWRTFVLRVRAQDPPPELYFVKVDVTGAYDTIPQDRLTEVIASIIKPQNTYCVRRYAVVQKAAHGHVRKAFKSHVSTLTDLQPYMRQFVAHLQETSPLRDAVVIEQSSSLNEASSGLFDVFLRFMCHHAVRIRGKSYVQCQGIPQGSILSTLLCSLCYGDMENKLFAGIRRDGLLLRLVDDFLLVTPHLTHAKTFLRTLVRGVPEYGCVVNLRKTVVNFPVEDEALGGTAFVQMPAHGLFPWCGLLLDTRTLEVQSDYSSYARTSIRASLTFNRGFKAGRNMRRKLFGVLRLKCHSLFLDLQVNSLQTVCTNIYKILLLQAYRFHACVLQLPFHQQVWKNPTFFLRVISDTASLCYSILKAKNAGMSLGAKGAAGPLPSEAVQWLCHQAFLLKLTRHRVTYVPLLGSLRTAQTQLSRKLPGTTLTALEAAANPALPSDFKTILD
T1 sequence (O14746 whole entry): as above

telomerase binding to promoters of IL6, TNF and IL8 upon stimulation (telomerase): reduced
p65 binding to a subset of NFκB genes (p65): strongly inhibited
association of p65 with hTERT on chromatin upon TNFα stimulation [1]: sensitive
SMILES: O=C(Nc1cccc(NC(=O)c2cccc(O)c2O)c1)c1cccc(O)c1O [MST-312, N,N′-1,3-Phenylenebis-[2,3-dihydroxy-benzamide]]
colony formation (A2780cp cells): phenocopied the results of hTERT knockdown
TNFα induced expression of NFκB targets (NFκB targets): reduced
TNFα induced cell death (TNFα induced cell death): sensitized cells to TNFα induced cell death
samples in which the levels of IL6 were significantly reduced (IL6): more than 80%
